According to patent US20160050919A1, “ACETYL-COA CARBOXYLASE INHIBITOR HERBICIDE AND AUXIN HERBICIDE FORMULATIONS” (Nufarm Americas, Inc., priority 2014, published 2016):

Legend:
[1] = Stability of active ingredients in the formulation, two weeks at 54° C.; conditions: for % wt after 2 week at 54° C. / Initial % wt: formulation of Table 5 (emulsion)
[2] = Stability of fenoxaprop-p-ethyl in the formulation at ambient temperature (~22° C.); assay type: physicochemical
Description: The formulation described in table 1 was tested for stability of all three active ingredients for two weeks at 54° C.

[3] = formulation of table 1 (micro emulsion, pH 6.7), two weeks at 54° C.
[4] = formulation of table 3 (emulsifiable concentrate), two weeks at 54° C.

Row | SMILES | % wt after 2 week at 54° C. [1] | Initial % wt [1] | stability of active ingredient [1, 3] | stability of active ingredient [1, 4] | also measured
1 | COc1c(Cl)ccc(Cl)c1C(=O)O [Dicamba] | 0.45 % wt | 0.64 % wt | remained unchanged | remained unchanged | –
2 | Cc1cc(Cl)ccc1O[C@@H](C)C(=O)O [MCPP-p] | 1.39 % wt | 1.53 % wt | – | – | –
3 | O=C(O)COc1nc(Cl)c(Cl)cc1Cl [Triclopyr, Triclopyr ACID] | 1.75 % wt | 1.78 % wt | – | – | –
4 | CCOC(=O)[C@@H](C)Oc1ccc(Oc2nc3ccc(Cl)cc3o2)cc1 [fenoxaprop-p-ethyl, Fenoxaprop-p-ethyl] | 0.60 % wt | 0.60 % wt | – | – | fenoxaprop-p-ethyl content, 2-week ([2]; formulation of table 1, 2 weeks): 2.61 wt %; fenoxaprop-p-ethyl content, 4-week ([2]; formulation of table 1, 4 weeks): 2.24 wt %; fenoxaprop-p-ethyl content, 6-week ([2]; formulation of table 1, 6 weeks): 2.15 wt %; fenoxaprop-p-ethyl content, 8-week ([2]; formulation of table 1, 8 weeks): 1.91 wt %; fenoxaprop-p-ethyl content, 12-week ([2]; formulation of table 1, 12 weeks): 1.28 wt %; fenoxaprop-p-ethyl content, 14-week ([2]; formulation of table 1, 14 weeks): 0.87 wt %; fenoxaprop-p-ethyl content, Initial ([2]; formulation of table 1, initial): 2.82 wt %; recovered after storage [1, 3]: 1%
5 | CCCCCCC(C)OC(=O)COc1nc(F)c(Cl)c(N)c1Cl (centres unmarked) [fluroxypyr MHE, Fluroxypyr MHE] | – | – | remained unchanged | remained unchanged | –
